The values that follow come from article PMC6942202 (Bioorganic & medicinal chemistry letters, 2019).

By Km is commonly meant the concentration of substrate that gives half-maximal velocity.

For test [1], the target named is T1, NgGCYH-IB (Neisseria gonorrhoeae, UniProt Q5F9K6). In words: Inhibition of NgGCYH-IB enzyme activity. It counts as biochemical, N. gonorrhoeae. The conditions noted are these: in words.
The next test has as its target T2, HsGCYH-IA (Homo sapiens, UniProt P30793).
T2 sequence (P30793 43-250 limits assumed): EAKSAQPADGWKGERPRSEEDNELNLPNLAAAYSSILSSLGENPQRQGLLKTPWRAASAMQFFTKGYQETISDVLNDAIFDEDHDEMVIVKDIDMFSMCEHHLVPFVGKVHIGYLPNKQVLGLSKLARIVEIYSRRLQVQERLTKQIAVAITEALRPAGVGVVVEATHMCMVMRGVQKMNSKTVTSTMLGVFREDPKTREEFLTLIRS
In words: Steady-state kinetic analysis of HsGCYH-IA. Type of test: biochemical, H. sapiens. Particulars: read-out: KM of HsGCYH-IA for GTP; fluorescence assay, GTP as substrate.

For test [2], the target named is T1, NgGCYH-IB. Particulars: read-out: KM of NgGCYH-IB for GTP; cited from earlier work.

T1 sequence (Q5F9K6 whole entry): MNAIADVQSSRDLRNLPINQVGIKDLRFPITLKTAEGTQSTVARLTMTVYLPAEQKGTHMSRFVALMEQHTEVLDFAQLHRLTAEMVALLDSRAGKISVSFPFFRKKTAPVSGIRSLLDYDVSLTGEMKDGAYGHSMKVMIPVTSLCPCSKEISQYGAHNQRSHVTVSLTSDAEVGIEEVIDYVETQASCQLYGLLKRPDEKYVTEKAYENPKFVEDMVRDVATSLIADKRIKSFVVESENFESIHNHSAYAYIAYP

In the case of `Nc1nc(OCCO)c2[nH]c(=O)n([C@@H]3O[C@H](CO)[C@@H](O)[C@H]3O)c2n1` [G1], on NgGCYH-IB [1], the “Selectivity between HsGCYH-IA and NgGCYH-IB from IC50 values” is “modest selectivity for HsGCYH-IA”.

For `Nc1nc(OC[C@H](O)CO)c2[nH]c(=O)n([C@@H]3O[C@H](CO)[C@@H](O)[C@H]3O)c2n1` [G3], at NgGCYH-IB [1], the “Selectivity between HsGCYH-IA and NgGCYH-IB from IC50 values” is given as “three-fold more potent against NgGCYH-IB”.

In the case of `Nc1nc2c(ncn2[C@@H]2O[C@H](COP(=O)(O)OP(=O)(O)OP(=O)(O)O)[C@@H](O)[C@H]2O)c(=O)[nH]1` [GTP], the Km was 867 ± 57 µM at HsGCYH-IA and 9 µM at NgGCYH-IB [2].
